Earlier results in publication PMC11237654, “Optimization of quenched fluorescent peptide substrates of SARS-CoV-2 3CL^pro main protease (Mpro) from proteomic identification of P6—P6' active site specificity” (Journal of Virology, 2024).
Square brackets hold non-standard residues; d marks the D form. * marks the point of attachment. ACC = NC(=O)Cc1cc(=O)oc2cc(N*)ccc12; Tle = CC(C)(C)[C@H](N)C(=O)O; Abu = CC[C@H](N)C(=O)O

Target: SARS-CoV-2 3CL^pro (Severe acute respiratory syndrome coronavirus 2, UniProt P0DTD1, Q3569A)
Conditions: cited from earlier work

For Ac-[Abu][Tle]LQ-{ACC}, the kcat/KM is given as 859 M⁻¹ s⁻¹.
